ChEMBL document CHEMBL1817597, “Antifungal thiopeptide cyclothiazomycin B1 exhibits growth inhibition accompanying morphological changes via binding to fungal cell wall chitin” (Bioorg Med Chem, 2011)
The source made the active and inactive calls. The rule behind the calls is not given here.

What was measured:
Mucor mucedo [1] = experiment: Antifungal activity against Mucor mucedo IFO 7684 under hyperosmotic shock at 0.081 uM after 2 days by paper disc method; assay type: functional; conditions: IFO 7684, 48 h, read-out: DIZ
Mucor mucedo [2] = experiment: Antifungal activity against Mucor mucedo IFO 7684 under hypoosmotic shock assessed as increase of fragility of organism at 0.081 uM after 24 hrs measured after distilled water treatment for 10 mins by microscopic analysis; assay type: functional, organism-based
Mucor mucedo [3] = experiment: Effect on cell wall re-generation in Mucor mucedo IFO 7684 spheroplasts under hyperosmotic condition at 0.081 uM up to 24 hrs by microscopic analysis; assay type: functional
Fusarium oxysporum [4] = experiment: Antifungal activity against Fusarium oxysporum NBRC 5942 under hypoosmotic shock assessed as increase of fragility of organism at 0.081 uM after 24 hrs measured after distilled water treatment for 10 mins by microscopic analysis; assay type: functional, organism-based
Mucor mucedo [5] = experiment: Inhibition of chitin synthase in Mucor mucedo IFO 7684 assessed as incorporation of GlcNAc from [14C]-UDP-GlcNAc into acid-insoluble fractions at 4 ug/ml after 55 mins by liquid scintillation counting
Fusarium oxysporum [6] = experiment: Antifungal activity against Fusarium oxysporum NBRC 5942 under hyperosmotic shock at 0.081 uM after 2 days by paper disc method; assay type: functional; conditions: NBRC 5942, 48 h, read-out: DIZ
Mucor mucedo [7] = experiment: Inhibition of RNA synthesis in Mucor mucedo IFO 7684 assessed as [8-14C]-adenine uptake into acid-insoluble fractions at 0.77 mM after 25 mins by liquid scintillation counting; assay type: functional; conditions: IFO 7684, 25 min
Mucor mucedo [8] = experiment: Inhibition of DNA synthesis in Mucor mucedo IFO 7684 assessed as [8-14C]-adenine uptake into acid-insoluble fractions at 0.77 mM after 25 mins by liquid scintillation counting; assay type: functional; conditions: IFO 7684, 25 min
Mucor mucedo [9] = experiment: Antimicrobial activity against Mucor mucedo IFO 7684 at 100 uM after 24 hrs by broth microdilution method; assay type: functional, organism-based
Mucor mucedo [10] = experiment: Induction of morphological changes in Mucor mucedo IFO 7684 assessed as thickening of hyphae at 100 uM after 24 hrs by microscopic analysis; assay type: functional, organism-based

C[C@@H]([C@H](N)C(=O)N[C@H](C(=O)O)[C@H]1O[C@@H](n2ccc(=O)[nH]c2=O)[C@H](O)[C@@H]1O)[C@H](O)c1ccc(O)cn1 [NIKKOMYCIN]
zone of inhibition at 0.081 µM (Mucor mucedo [1]): 23 mm | Activity (Mucor mucedo [2]): Active | Activity (Mucor mucedo [3]): inactive | Activity (Fusarium oxysporum [4]): Active | inhibition (Mucor mucedo [5]): 69% | zone of inhibition at 0.081 µM (Fusarium oxysporum [6]): 0 mm

O=c1[nH]cc(F)c(=O)[nH]1 [FLUOROURACIL]
inhibition at 770 µM (Mucor mucedo [7]): 75% | inhibition at 770 µM (Mucor mucedo [8]): 61%

CNCCNS(=O)(=O)c1cccc2cnccc12
Activity (Mucor mucedo [9]): inactive | Activity (Mucor mucedo [10]): inactive

CCCC(=O)Nc1ncnc2c1ncn2[C@@H]1O[C@@H]2COP(=O)(O)O[C@H]2[C@H]1OC(=O)CCC
Activity (Mucor mucedo [9]): inactive | Activity (Mucor mucedo [10]): inactive
